Several values for one entry are separate records, joined by “and”; a condition that tells them apart may be missing. Identical values can stand only once. Entries after “also recorded” stand apart in the source; their conditions may differ.
Experiments:
[1] = test system: prostate-specific antigen (PSA) levels; experiment: PSA ELISA in serum and PC-82 tumours of treated mice; type: in vivo, male athymic Ncr-nu mice; settings: 50 mg kg-1 day-1, s.c., 28 days, P < 0.01
From the text: (§1) Prostate cancer is second only to lung cancer as the leading cause of death and is the most prevalent cancer amongst men in the USA and Europe and accounts for about a third of all cancers diagnosed each year in men. In the UK, the incidence of prostate cancer has almost doubled over the last 30 years. Similarly, in 1998, it was estimated that more than 334 500 cases were diagnosed and more than 41 800 men died of the disease in the USA (Dijkman and Debruyne, 1996). The prostate gland is under the influence of androgens and often becomes enlarged in older men. […] Localized prostate cancer is curable and although the metastatic form of the disease is difficult to manage, endocrine therapy does reduce the death rate from the disease and is first-line treatment for all patients. In the testis and adrenals, 17-hydroxylase/C17,20 -lyase converts the C21 steroid precursors to the corresponding C19 andro- gens. […] Both T and DHT stimu- late prostatic growth, although DHT plays a much more important role than T in the organogenesis and homeostasis of the prostate (Wilson, 1996). […] Androgen- dependent human prostate cancer xenografts (PC-82) were grown in nude mice and the effects of L-39 (50 mg kg-1 day-1 ) on tumour growth and prostate-specific antigen (PSA) levels were determined after 28 days. […] We also evaluated the pharmacokinetic properties of L-39 in male mice in this investigation. […]

[2] = Gross examination of vital organs, organ and body weights after treatment; type: in vivo, male athymic Ncr-nu mice; settings: 50 mg kg-1 daily, s.c., 28 days
From the text: as §1

androgen receptors = test system: androgen receptors; set-up: method as in Long et al, 1999; settings: L-39 5 μM, R1881 5 nM, LNCaP cultures; ref Long et al, 1999; cited from earlier work
Solubility in water = type: physicochemical
[3] = test system: LNCaP human prostate cancer cells; set-up: method as in Long et al, 1999; settings: ref Long et al, 1999; cited from earlier work
[4] = test system: LNCaP human prostatic cells grown as tumours; set-up: method as in Long et al, 1999; settings: ref Long et al, 1999; cited from earlier work
[5] = molecular target: T1, human testicular microsomal 17α-hydroxylase/C17,20-lyase (Homo sapiens, UniProt P05093); experiment: Inhibition of 17α-hydroxylase/C17,20-lyase activity in human testicular microsomes ([3H]-acetic acid release); type: biochemical
T1 construct: Testicular and prostatic microsomes were prepared as described previously; from tissue; host or cells: human testis, microsomal fraction
T1 sequence (P05093 1-508): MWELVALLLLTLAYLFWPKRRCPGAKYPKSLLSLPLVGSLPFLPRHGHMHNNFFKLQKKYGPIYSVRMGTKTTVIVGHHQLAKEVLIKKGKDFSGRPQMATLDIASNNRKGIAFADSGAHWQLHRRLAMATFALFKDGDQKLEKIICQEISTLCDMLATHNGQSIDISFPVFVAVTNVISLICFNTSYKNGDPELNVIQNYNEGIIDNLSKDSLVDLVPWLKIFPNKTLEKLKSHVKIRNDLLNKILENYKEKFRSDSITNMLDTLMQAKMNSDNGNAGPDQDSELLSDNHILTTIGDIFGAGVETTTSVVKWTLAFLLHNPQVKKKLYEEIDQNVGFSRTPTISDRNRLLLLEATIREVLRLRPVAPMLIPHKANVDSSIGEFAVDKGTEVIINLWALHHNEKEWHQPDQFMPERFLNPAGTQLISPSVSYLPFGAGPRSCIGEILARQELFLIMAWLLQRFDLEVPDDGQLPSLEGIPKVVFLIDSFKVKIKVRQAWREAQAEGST
From the text: (§2) Prostate cancer is second only to lung cancer as the leading cause of death and is the most prevalent cancer amongst men in the USA and Europe and accounts for about a third of all cancers diagnosed each year in men. In the UK, the incidence of prostate cancer has almost doubled over the last 30 years. Similarly, in 1998, it was estimated that more than 334 500 cases were diagnosed and more than 41 800 men died of the disease in the USA (Dijkman and Debruyne, 1996). The prostate gland is under the influence of androgens and often becomes enlarged in older men. […] Localized prostate cancer is curable and although the metastatic form of the disease is difficult to manage, endocrine therapy does reduce the death rate from the disease and is first-line treatment for all patients. In the testis and adrenals, 17-hydroxylase/C17,20 -lyase converts the C21 steroid precursors to the corresponding C19 andro- gens. […] Both T and DHT stimu- late prostatic growth, although DHT plays a much more important role than T in the organogenesis and homeostasis of the prostate (Wilson, 1996). Current endocrine therapies such as orchidectomy and luteinizing hormone releasing hormone (LHRH) agonists result in reduced androgen production by the testis and are useful in the early stages of prostate cancer. However, these treatment options fail to alter androgen production by the adrenals that may contribute androgen precursors to the prostate. The addition of flutamide, an anti-androgen to inhibit the action of androgens on the prostate, is only partially effective as the disease frequently progresses due to mutations in the androgen receptor, which can utilize flutamide as an agonist. […] Androgen- dependent human prostate cancer xenografts (PC-82) were grown in nude mice and the effects of L-39 (50 mg kg-1 day-1 ) on tumour growth and prostate-specific antigen (PSA) levels were determined after 28 days. […] We also evaluated the pharmacokinetic properties of L-39 in male mice in this investigation. […]

[6] = test system: PC-82 human prostate cancer xenografts; experiment: Human PC-82 prostate cancer xenograft model: tumour volume and weight; type: in vivo, male athymic Ncr-nu mice
From the text: as §2

[7] = molecular target: T2, 5α-reductase in human prostatic microsomes (Homo sapiens, UniProt P31213); experiment: 5α-Reductase assay in human prostatic (BPH) microsomes; type: biochemical
T2 sequence (P31213 1-254): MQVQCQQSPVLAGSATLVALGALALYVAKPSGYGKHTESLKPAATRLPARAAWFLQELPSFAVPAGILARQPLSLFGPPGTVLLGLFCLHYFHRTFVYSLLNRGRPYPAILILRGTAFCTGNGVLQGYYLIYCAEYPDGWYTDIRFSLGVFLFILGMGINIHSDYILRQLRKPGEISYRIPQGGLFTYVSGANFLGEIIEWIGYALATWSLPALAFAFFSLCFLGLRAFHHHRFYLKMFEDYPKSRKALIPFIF
From the text: as §2

[8] = Pharmacokinetic studies after a single s.c. or i.v. bolus dose, plasma HPLC; type: in vivo, male Balb/c mice; set-up: AUC0- / Cmax: unit not given here
From the text: Prostate cancer is second only to lung cancer as the leading cause of death and is the most prevalent cancer amongst men in the USA and Europe and accounts for about a third of all cancers diagnosed each year in men. In the UK, the incidence of prostate cancer has almost doubled over the last 30 years. Similarly, in 1998, it was estimated that more than 334 500 cases were diagnosed and more than 41 800 men died of the disease in the USA (Dijkman and Debruyne, 1996). The prostate gland is under the influence of androgens and often becomes enlarged in older men. […] Localized prostate cancer is curable and although the metastatic form of the disease is difficult to manage, endocrine therapy does reduce the death rate from the disease and is first-line treatment for all patients. In the testis and adrenals, 17-hydroxylase/C17,20 -lyase converts the C21 steroid precursors to the corresponding C19 andro- gens. […] Both T and DHT stimu- late prostatic growth, although DHT plays a much more important role than T in the organogenesis and homeostasis of the prostate (Wilson, 1996). Current endocrine therapies such as orchidectomy and luteinizing hormone releasing hormone (LHRH) agonists result in reduced androgen production by the testis and are useful in the early stages of prostate cancer. However, these treatment options fail to alter androgen production by the adrenals that may contribute androgen precursors to the prostate. The addition of flutamide, an anti-androgen to inhibit the action of androgens on the prostate, is only partially effective as the disease frequently progresses due to mutations in the androgen receptor, which can utilize flutamide as an agonist. […] This may be achieved through dual inhibition of 17- hydroxylase/C17,20 -lyase and 5-reductase (Li et al, 1992; Klus et al, 1996). […] Androgen- dependent human prostate cancer xenografts (PC-82) were grown in nude mice and the effects of L-39 (50 mg kg-1 day-1 ) on tumour growth and prostate-specific antigen (PSA) levels were determined after 28 days. […] Pharmacokinetic studies were also conducted in male Balb/c mice. […] (c) 2000 Cancer Research Campaign Keywords: 17-hydroxylase/C17,20 -lyase; 5-reductase; androgens; prostate cancer; pharmacokinetics 74 Received 9 November 1999 Revised 4 February 2000 Accepted 10 February 2000 Correspondence to: AM Brodie British Journal of Cancer (2000) 83(1), 74-82 (c) 2000 Cancer Research Campaign doi: 10.1054/ bjoc.2000.1136, available online at http://www.idealibrary.com on *Present address: Department of Pharmaceutical Sciences, Temple University School of Pharmacy, Philadelphia, PA 19140, USA. Present address: School of Pharmaceutical Sciences, Beijing Medical University, China. Effects of L-39 in vitro and in vivo 75 British Journal of Cancer (2000) 83(1), 74-82 (c) 2000 Cancer Research Campaign advanced prostate cancer (Small et al, 1997). […] 5-Reductase occurs in two isoforms namely, type I and type II. The type II isoenzyme is the predominant form in the human prostate. […] In the present investigation, we describe the effects of L-39, a novel androstene derivative, in vitro and on human prostate cancer xenografts in nude mice. We also evaluated the pharmacokinetic properties of L-39 in male mice in this investigation. […] [21-3 H]-17-hydroxy- pregnenolone ([…] ) was prepared in our laboratory as previously described (Njar et al, 1998). [1,2,6,7-3 H]- Testosterone (96.5 Ci mmol-1 ) and [4-14 C]-dihydrotestosterone (56.5 mCi mmol-1 ) were obtained from Dupont (Boston, MA, USA).

T and DHT concentrations = experiment: Testosterone and DHT RIA in serum and PC-82 tumours of treated mice; type: in vivo, male athymic Ncr-nu mice; settings: 50 mg kg-1 day-1, s.c., 28 days, P < 0.05
From the text: as §1

[9] = molecular target: T1, human testicular microsomal 17α-hydroxylase/C17,20-lyase; set-up: method as in Nnane et al, 1998; settings: ref Nnane et al, 1998; cited from earlier work
[10] = intravenous 50 mg kg-1, single bolus, mouse plasma
[11] = subcutaneous 50 mg kg-1, single bolus, mouse plasma
[12] = subcutaneous 100 mg kg-1, single bolus, mouse plasma

C[C@]12CCC(=O)C=C1CC[C@@H]1[C@@H]2CC[C@]2(C)C(c3ccno3)=CC[C@@H]12 [L-39, 17-(5′-Isoxazolyl)androsta-4,16-dien-3-one]
reduction of tumour PSA levels [1]: 50%
gross examination of liver, kidney, heart and adrenal gland [2]: did not reveal toxicity
weight of vital organs and body weight [2]: did not change significantly
anti-androgenic activity: binding of labelled R1881 to androgen receptors (androgen receptors): preventing the labelled synthetic androgen R1881 (5 n M) from binding to the androgen receptors
solubility in water (Solubility in water): poorly soluble in water
proliferation of LNCaP cells in culture [3]: inhibits proliferation
growth of LNCaP tumours in male SCID mice [4]: effective at slowing LNCaP human prostatic cells grown in male SCID mice as tumours; also recorded: more effective than flutamide
type of inhibition of 17α-hydroxylase/C17,20-lyase [5]: non-competitive
Ki ([5]; Lineweaver-Burke slopes): 22 nM
IC50 ([5]; substrate 17-hydroxypregnenolone, 1 h, pH 7.4): 59 nM
diminution of PC-82 tumour weights ([6]; 50 mg kg-1 daily, s.c., 28 days, vs control): 70%
increase in tumour volume over 28 days ([6]; 50 mg kg-1 daily, s.c., control increased twofold): 1.25 fold
potency in reducing growth of PC-82 tumour xenografts, compared with other therapies ([6]; 50 mg kg-1 day-1, s.c., 28 days): to a similar extent as castration or flutamide treatment
type of inhibition of 5α-reductase [7]: competitive
Ki ([7]; Lineweaver-Burke slopes, read-out: Ki, inhibition of 5α-reductase): 28 nM
IC50 ([7]; T 40 nM, 10 min, pH 7.4, read-out: IC50, inhibition of 5α-reductase): 33 nM
metabolism in mice ([8]; initial observations, metabolite not characterized): metabolized to a more polar metabolite
time after intravenous administration at which L-39 was not detectable in plasma ([8]; intravenous 50 mg kg-1): 4 h
AUC0- [8, 10]: 14.41
CI (total clearance) [8, 10]: 3.47 0.14 l h-1 kg-1 and 3.5 l h-1 kg-1
Kel (terminal elimination rate constant) [8, 10]: 1.05 0.05 h-1 and 1.052 h-1
MTR [8, 10]: 1.15 h
T1/2 [8, 10]: 0.66 h
Vd [8, 10]: 3.30 0.13 l kg-1
AUC0- [8, 11]: 4.09
CI (total clearance) [8, 11]: 12.24 0.48 l h-1 kg-1
Cmax [8, 11]: 1.42
Kel [8, 11]: 0.46 0.02 h-1
MTR [8, 11]: 2.52 h
T1/2 [8, 11]: 1.51 h
Tmax [8, 11]: 0.75 h
Vd [8, 11]: 26.73 1.04 l kg-1
AUC0- [8, 12]: 4.04
CI (total clearance) [8, 12]: 24.78 1.0 l h-1 kg-1
Cmax [8, 12]: 1.30
Kel [8, 12]: 0.53 0.03 h-1
MTR [8, 12]: 2.41 h
T1/2 [8, 12]: 1.31 h
Tmax [8, 12]: 1.0 h
Vd [8, 12]: 46.80 1.84 l kg-1
reduction of DHT concentration in PC-82 tumour xenografts (T and DHT concentrations): 94%
reduction of T concentration in PC-82 tumour xenografts (T and DHT concentrations): 64%

CC(C)(C)NC(=O)[C@H]1CC[C@H]2[C@@H]3CC[C@H]4NC(=O)C=C[C@]4(C)[C@H]3CC[C@]12C [finasteride]
activity against 17-hydroxylase/C17,20-lyase [9]: no activity

Source: paper PMC2374539, “Anti-tumour effects and pharmacokinetic profile of 17-(5′ -isoxazolyl)androsta-4,16-dien-3-one (L-39) in mice: an inhibitor of androgen synthesis” (British Journal of Cancer, 2000)
